Tested on: mGluR2
Conditions: monkey thalamus, compound 2 0.5 mg/kg iv 10 min before tracer

## Cc1c(OCc2cccc(-c3ccc(C(=O)O)cc3)c2)cc2c(c1C)C(=O)C(C1CCCC1)C2 (stereo not shown) [Compound 2, Biphenyl-indanone A]
  enhancement of [18F]9 Logan VT after pretreatment: ~ 3.3%

Source: PMC9434700 (Journal of medicinal chemistry, 2022)
